Data: patent publication US20260184706A1, “PHENYLSULFONAMIDE DERIVATIVES, PREPARATION METHOD THEREFOR, AND PHARMACEUTICAL COMPOSITION FOR PREVENTION OR TREATMENT OF CANCER CONTAINING SAME AS ACTIVE INGREDIENT” (Korea Research Institute of Chemical Technology, priority 2022, published 2026)

Key:
[1] = target: recombinant human GCN2 protein (Homo sapiens, UniProt Q9P2K8); assay: General control nonderepressible 2 (GCN2) inhibitory capacity, 33P-ATP filter assay; format: biochemical; details: recombinant human GCN2, 70 uM [gamma-33P-ATP], 40 minutes, room temperature
Method: <Experimental Example 2> Evaluation of General Control Nonderepressible 2 (GCN2) Inhibitory Capacity
(§1) A recombinant human GCN2 protein was mixed with the compound in a reaction solution (20 mM Tris/HCl pH8.5, 0.2 mM EDTA, 0.1% Tween, 100 mM NaCl, 300 μM RSRSRSRSRSRSRSR, 10 mM Magnesium acetate, 70 uM [gamma-33P-ATP]) and reacted at room temperature for 40 minutes. Then, the reaction was terminated by adding phosphoric acid (0.5%) to the reaction mixture, and 10 ul of the reaction solution was dropped onto a P30 filter. The filter was washed four times in a 0.425% phosphoric acid solution for 4 minutes, then washed once more in methanol, dried, and the GCN2 activity was measured by scintillation counting. […] The compound was diluted by 1/3 from the highest concentration of 1 uM and treated with a total of 9 concentrations to evaluate the degree of inhibition.

phosphorylated GCN2 = target: T1, phosphorylated GCN2 (Homo sapiens, UniProt Q9P2K8); assay: Inhibition of phosphorylated GCN2 under amino acid deficiency in HT-1080 cells, Western blot; format: cell-based; details: compound 50 nM, 24 hours; for Phospho-GCN2 inhibition: symbols ◯ / X not defined
T1 construct: endogenous in cells; host or cells: HT-1080
Method: <Experimental Example 5> Evaluation of Inhibitory Efficacy of ISR-Related Kinase GCN2 Under Amino Acid Deficiency Condition Using Western Blot
HT-1080 cells, a human fibrosarcoma cell line, were cultured in RPMI-1640 medium supplemented with 10% FBS, penicillin (penicillin; 100 IU/ml), and streptomycin (streptomycin; 100 μg/ml). Cells (1×10^6 cells/ml) were seeded onto 100 mm plates (polypropylene tissue culture plate) and incubated for 24 hours in a 37° C., 5% CO2 incubator before being used for experiments.
The following method was used to achieve amino acid deficiency conditions in cells. After 24 hours of cell culture, the cells were cultured in amino acids and L-glutamine-free RPMI-1640 medium supplemented with 10% FBS, penicillin (100 IU/ml), and streptomycin (100 μg/ml). After 24 hours of cell culture in RPMI-1640 without amino acids and L-glutamine, the compound prepared at a concentration of 50 nM was dispensed onto each plate and cultured for 24 hours in a 37° C., 5% CO2 incubator.
In order to measure the signal transduction inhibitory efficacy of GCN among the ISR-related kinases according to the present invention, the following experiment was performed using SDS-PAGE. The fibrosarcoma cell line HT-1080 cells cultured on plates as described above were washed with PBS after removing the culture medium. After removing PBS, the cells were lysed by adding a radio-immunoprecipitation assay buffer (RIPA buffer) containing 50 mM Tris (pH 7.4), 150 mM NaCl, 1% NP-40, 0.5% sodium deoxycholate, 2 mM sodium fluoride, 2 mM EDTA, 0.1% SDS, and a protease/phosphatase inhibitor cocktail to the plate. After centrifugation at 4° C., 13,000×g for 15 minutes, the protein in the upper layer was collected, and the protein concentration was measured at 562 nm using BCA (bicinchoninc acid) reagent, and the amount of protein in all samples was prepared at 20-50 μg.
After making the total volume the same using the sample buffer and RIPA buffer, it was heated at 97° C. for 5 minutes. Then, electrophoresis was performed on 8% or 12% SDS-PAGE at 80 V for 30 minutes and at 160 V for 1 hour and 30 minutes. After electrophoresis, the SDS-PAGE gel was transferred to an NC membrane (nitrocellulose membrane) at 90 V for 2 hours. The NC membrane was placed in TBST (tris buffer saline tween-20; 20 mM tris, 137 mM sodium chloride, 0.1% tween-20, pH 8.0) containing 5% non-fat skim milk, placed on a shaker, and reacted at room temperature for 1 hour.
Each primary antibody was diluted in TBST containing 5% non-fat skim milk, poured onto the NC membrane, and reacted at 4° C. for 24 hours. The membrane was washed three times for 10 minutes each with TBST. The secondary antibodies (anti-rabbit IgG and anti-mouse IgG labeled with horseradish peroxidase (HRP)) were diluted in TBST containing 5% non-fat skim milk and reacted with the membrane at room temperature for 1 hour. Upon completion of the reaction, the membrane was washed three times with TBST for 10 minutes each. Protein expression bands were detected by a chemiluminescence image analyzer (Image Quant LAS 500) after the ECL solution was reacted with the NC membrane.
GCN2, a key kinase of the integrated stress response (ISR), is phosphorylated in response to amino acid deficiency.

[2] = target: T2, recombinant human PERK protein (Homo sapiens, UniProt Q9NZJ5); assay: PKR-like endoplasmic reticulum kinase (PERK) inhibitory capacity, 33P-ATP filter assay; format: biochemical; details: 15 uM [gamma-33P-ATP], 40 minutes, room temperature
T2 sequence (Q9NZJ5 30-1116): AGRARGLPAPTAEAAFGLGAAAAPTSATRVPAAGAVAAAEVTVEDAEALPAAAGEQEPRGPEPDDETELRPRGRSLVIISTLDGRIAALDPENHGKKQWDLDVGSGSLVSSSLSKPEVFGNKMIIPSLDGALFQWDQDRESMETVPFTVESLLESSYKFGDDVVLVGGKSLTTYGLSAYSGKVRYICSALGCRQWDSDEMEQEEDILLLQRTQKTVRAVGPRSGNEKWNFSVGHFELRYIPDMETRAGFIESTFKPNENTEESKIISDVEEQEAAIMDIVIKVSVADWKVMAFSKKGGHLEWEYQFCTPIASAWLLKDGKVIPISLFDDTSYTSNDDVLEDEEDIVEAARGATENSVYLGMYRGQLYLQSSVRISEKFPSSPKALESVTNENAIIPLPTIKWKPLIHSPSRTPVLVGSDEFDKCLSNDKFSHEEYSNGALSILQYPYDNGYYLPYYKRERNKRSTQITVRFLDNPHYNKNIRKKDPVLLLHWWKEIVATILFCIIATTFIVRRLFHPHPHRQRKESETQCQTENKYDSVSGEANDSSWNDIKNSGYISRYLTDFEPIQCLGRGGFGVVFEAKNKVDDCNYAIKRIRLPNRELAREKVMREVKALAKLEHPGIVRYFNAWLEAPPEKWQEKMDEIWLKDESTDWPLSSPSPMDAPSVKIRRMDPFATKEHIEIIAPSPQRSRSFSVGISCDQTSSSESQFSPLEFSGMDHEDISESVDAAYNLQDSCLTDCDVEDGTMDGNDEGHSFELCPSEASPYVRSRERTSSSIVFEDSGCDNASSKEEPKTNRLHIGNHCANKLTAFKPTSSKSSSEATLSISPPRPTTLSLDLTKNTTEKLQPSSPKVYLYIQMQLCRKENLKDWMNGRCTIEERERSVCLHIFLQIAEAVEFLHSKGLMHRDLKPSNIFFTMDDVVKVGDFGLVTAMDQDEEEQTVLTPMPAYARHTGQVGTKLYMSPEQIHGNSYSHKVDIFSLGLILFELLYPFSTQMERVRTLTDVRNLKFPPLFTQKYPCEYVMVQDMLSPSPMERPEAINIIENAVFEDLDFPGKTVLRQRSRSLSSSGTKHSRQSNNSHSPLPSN
Method: <Experimental Example 1> Evaluation of PKR-Like Endoplasmic Reticulum Kinase (PERK) Inhibitory Capacity
as §1, with “PERK” for “GCN2”, “(8” for “(20”, “MOPS pH 7.0,” for “Tris/HCl pH8.5,”, “EDTA,” for “EDTA, 0.1% Tween, 100 mM NaCl,”, “uM” for “μM”, “15” for “70”

[3] = target: recombinant human HRI protein (Homo sapiens, UniProt Q9BQI3); assay: eIF2-alpha kinase heme-regulated inhibitor (HRI) inhibitory capacity, 33P-ATP filter assay; format: biochemical; details: 45 uM [gamma-33P-ATP], 40 minutes, room temperature
Method: <Experimental Example 3> Evaluation of eIF2-Alpha Kinase Heme-Regulated Inhibitor (HRI) Inhibitory Capacity
A recombinant human HRI protein was mixed with the compound in a reaction solution (50 mM Tris/HCl pH 7.5, 0.04 mM EDTA, 300 uM RSRSRSRSRSRSRSR, 10 mM Magnesium acetate, 45 uM [gamma-33P-ATP]) and reacted at room temperature for 40 minutes. Then, the reaction was terminated by adding phosphoric acid (0.5%) to the reaction mixture, and […] of the reaction solution was dropped onto a P30 filter. The filter was washed four times in a 0.425% phosphoric acid solution for 4 minutes, then […] washed once more in methanol, dried, and the HRI activity was measured by scintillation counting. […] The compound was diluted by 1/3 from the highest concentration of 1 uM and treated with a total of 9 concentrations to evaluate the degree of inhibition.

[4] = target: recombinant human PKR protein (Homo sapiens, UniProt P19525); assay: Protein kinase R (PKR) inhibitory capacity, 33P-ATP filter assay; format: biochemical; details: 15 uM [gamma-33P-ATP], 40 minutes, room temperature
Method: <Experimental Example 4> Evaluation of Protein Kinase R (PKR) Inhibitory Capacity
A recombinant human PKR protein was mixed with the compound in a reaction solution (8 mM MOPS pH 7.0, 0.2 mM EDTA, 20 uM RSRSRSRSRSRSRSR, 10 mM Magnesium acetate, 15 uM [gamma-33P-ATP]) and reacted at room temperature for 40 minutes. Then, the reaction was terminated by adding phosphoric acid (0.5%) to the reaction mixture, and 10 ul of the reaction solution was dropped onto a P30 filter. The filter was washed four times in a 0.425% phosphoric acid solution for 4 minutes, then washed once more in methanol, dried, and the PKR activity was measured by scintillation counting. […] The compound was diluted by 1/3 from the highest concentration of 1 uM and treated with a total of 9 concentrations to evaluate the degree of inhibition.

Chain of recombinant human GCN2 protein (Q9P2K8 whole entry): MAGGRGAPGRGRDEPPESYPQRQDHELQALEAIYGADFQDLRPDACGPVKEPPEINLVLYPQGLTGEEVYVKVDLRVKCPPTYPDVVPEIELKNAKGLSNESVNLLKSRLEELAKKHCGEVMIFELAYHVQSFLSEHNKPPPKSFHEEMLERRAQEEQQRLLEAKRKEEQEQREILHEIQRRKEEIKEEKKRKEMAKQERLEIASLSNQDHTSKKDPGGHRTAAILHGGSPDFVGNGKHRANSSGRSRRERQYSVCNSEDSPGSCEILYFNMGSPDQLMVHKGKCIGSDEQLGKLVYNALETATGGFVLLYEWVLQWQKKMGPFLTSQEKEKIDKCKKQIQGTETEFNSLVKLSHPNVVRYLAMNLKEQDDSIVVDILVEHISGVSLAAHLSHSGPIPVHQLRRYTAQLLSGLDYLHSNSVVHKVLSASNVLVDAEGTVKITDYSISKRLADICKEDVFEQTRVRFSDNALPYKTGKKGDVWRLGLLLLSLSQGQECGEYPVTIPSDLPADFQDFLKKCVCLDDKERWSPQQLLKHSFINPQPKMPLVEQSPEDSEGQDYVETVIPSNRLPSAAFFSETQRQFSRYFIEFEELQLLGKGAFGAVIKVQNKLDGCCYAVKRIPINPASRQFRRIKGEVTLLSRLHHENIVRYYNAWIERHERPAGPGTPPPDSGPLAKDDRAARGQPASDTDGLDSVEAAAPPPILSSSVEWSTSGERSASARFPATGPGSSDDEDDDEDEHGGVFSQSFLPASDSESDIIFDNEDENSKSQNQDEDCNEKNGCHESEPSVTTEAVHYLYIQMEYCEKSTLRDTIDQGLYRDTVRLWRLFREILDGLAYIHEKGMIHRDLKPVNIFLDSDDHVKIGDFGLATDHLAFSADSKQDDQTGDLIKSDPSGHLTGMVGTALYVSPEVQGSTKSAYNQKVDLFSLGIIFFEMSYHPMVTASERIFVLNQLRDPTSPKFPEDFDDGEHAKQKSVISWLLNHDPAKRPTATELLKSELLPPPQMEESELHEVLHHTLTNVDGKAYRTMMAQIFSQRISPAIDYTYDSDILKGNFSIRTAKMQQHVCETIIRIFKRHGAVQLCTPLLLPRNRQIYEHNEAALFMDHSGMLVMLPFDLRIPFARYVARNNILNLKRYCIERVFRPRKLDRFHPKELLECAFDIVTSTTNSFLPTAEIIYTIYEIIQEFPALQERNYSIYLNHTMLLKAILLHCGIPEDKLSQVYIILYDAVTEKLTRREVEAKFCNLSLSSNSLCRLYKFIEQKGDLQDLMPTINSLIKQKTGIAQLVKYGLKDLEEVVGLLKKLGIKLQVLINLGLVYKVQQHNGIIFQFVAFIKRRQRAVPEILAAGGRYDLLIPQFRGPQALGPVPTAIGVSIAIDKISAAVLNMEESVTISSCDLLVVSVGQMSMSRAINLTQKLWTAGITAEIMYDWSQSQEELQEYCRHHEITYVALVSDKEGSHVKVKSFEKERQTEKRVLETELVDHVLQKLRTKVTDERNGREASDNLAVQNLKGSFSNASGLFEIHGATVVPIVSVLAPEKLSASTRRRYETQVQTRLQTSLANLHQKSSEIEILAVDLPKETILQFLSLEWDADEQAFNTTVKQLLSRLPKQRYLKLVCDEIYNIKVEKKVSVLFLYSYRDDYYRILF
T1 sequence (Q9P2K8 whole entry): as above
Chain of recombinant human HRI protein (Q9BQI3 whole entry): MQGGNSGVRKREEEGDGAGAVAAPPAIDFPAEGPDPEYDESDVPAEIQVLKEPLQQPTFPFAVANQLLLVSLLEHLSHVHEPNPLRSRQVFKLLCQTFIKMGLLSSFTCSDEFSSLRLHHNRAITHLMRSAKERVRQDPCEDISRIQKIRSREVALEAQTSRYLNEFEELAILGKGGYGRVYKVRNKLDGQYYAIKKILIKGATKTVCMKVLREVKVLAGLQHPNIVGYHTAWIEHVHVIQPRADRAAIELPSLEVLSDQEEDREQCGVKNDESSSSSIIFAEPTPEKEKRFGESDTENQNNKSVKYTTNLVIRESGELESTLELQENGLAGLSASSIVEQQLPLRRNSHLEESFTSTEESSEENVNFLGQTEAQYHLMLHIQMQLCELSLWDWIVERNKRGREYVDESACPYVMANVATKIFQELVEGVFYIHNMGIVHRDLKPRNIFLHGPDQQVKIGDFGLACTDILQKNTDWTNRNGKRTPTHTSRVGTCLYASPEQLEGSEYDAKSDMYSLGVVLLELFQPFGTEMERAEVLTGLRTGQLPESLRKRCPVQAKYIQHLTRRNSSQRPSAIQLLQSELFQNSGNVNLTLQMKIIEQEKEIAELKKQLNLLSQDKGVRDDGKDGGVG
Chain of recombinant human PKR protein (P19525 whole entry): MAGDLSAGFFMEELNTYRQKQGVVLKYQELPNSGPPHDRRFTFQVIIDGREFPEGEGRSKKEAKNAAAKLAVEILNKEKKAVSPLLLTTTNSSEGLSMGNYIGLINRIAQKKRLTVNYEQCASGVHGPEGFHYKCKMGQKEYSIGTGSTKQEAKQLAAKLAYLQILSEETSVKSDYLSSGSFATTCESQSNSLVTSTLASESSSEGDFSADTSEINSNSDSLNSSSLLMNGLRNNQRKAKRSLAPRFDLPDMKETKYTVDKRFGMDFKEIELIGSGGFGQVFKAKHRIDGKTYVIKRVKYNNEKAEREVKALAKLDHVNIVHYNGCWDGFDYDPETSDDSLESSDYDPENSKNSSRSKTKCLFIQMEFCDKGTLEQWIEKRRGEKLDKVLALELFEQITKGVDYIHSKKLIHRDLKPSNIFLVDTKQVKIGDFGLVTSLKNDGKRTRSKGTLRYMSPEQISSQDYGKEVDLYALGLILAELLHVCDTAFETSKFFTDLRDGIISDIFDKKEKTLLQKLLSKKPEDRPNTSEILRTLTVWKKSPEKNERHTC

Structure (SMILES)	IC50 [1] [nM]	inhibitory effect on the phosphorylated GCN2 (phosphorylated GCN2)	Phospho-GCN2 inhibition (phosphorylated GCN2)	IC50 [2] [nM]	IC50 [3] [nM]	IC50 [4] [nM]
COc1ncc(Cl)cc1S(=O)(=O)Nc1ccc(F)c(-n2ccc3nc(N)ncc3c2=O)c1F [Example 26, N-(3-(2-amino-5-oxopirido[4,3-d]pyrimidin-6(5H)-yl)-2,4-difluorophenyl)-5-chloro-2-methoxypyridine-3-sulfonamide]	< 100	excellent inhibitory effect	◯			
COc1ncc(C#N)cc1S(=O)(=O)Nc1ccc(F)c(-n2ccc3nc(N)ncc3c2=O)c1F [Example 28, N-(3-(2-amino-5-oxopirido[4,3-d]pyrimidin-6(5H)-yl)-2,4-difluorophenyl)-5-cyano-2-methoxypyridine-3-sulfonamide]	< 100			< 100	100 to 300	> 1000
Cc1nn(-c2c(F)ccc(NS(=O)(=O)c3c(Cl)nn(C)c3C)c2F)c(=O)c2cnc(N)nc12 [Example 36, N-(3-(2-amino-8-methyl-5-oxopyrimido[4,5-d]pyridazine-6(5H)-yl)-2,4-difluorophenyl)-3-chloro-1,5-dimethyl-1H-pyrazole-4-sulfonamide]	100 to 300	excellent inhibitory effect				
COc1ncc(Cl)cc1S(=O)(=O)Nc1ccc(F)c(-n2nc(C)c3nc(N)ncc3c2=O)c1F [Example 38, N-(3-(2-amino-8-methyl-5-oxopyrimido[4,5-d]pyridazine-6(5H)-yl)-2,4-difluorophenyl)-5-chloro-2-methoxypyridine-3-sulfonamide]	100 to 300		◯			
Cc1nn(C)c(C)c1S(=O)(=O)Nc1ccc(F)c(-n2c(=O)c3cnc(N)nc3n(C)c2=O)c1F [Example 48, N-(3-(7-amino-1-methyl-2,4-dioxo-1,4-dihydropyrimido[4,5-d]pyrimidin-3(2H)-yl)-2,4-difluorophenyl)-1,3,5-trimethyl-1H-pyrazole-4-sulfonamide]	100 to 300		◯			
Nc1ncc2c(=O)n(-c3c(F)ccc(NS(=O)(=O)c4cc(Cl)ccc4Cl)c3F)c(=O)n(C3CC3)c2n1 [Example 63, N-(3-(7-amino-1-cyclopropyl-2,4-dioxo-1,4-dihydropyrimido[4,5-d]pyrimidin-3(2H)-yl)-2,4-difluorophenyl)-2,5-dichlorobenzenesulfonamide]	300 to 1000	excellent inhibitory effect	◯			
Nc1ncc2c(=O)n(-c3c(F)ccc(NS(=O)(=O)c4cccc5ccccc45)c3F)c(=O)n(C3CC3)c2n1 [Example 64, N-(3-(7-amino-1-cyclopropyl-2,4-dioxo-1,4-dihydropyrimido[4,5-d]pyrimidin-3(2H)-yl)-2,4-difluorophenyl)naphthalene-1-sulfonamide]	300 to 1000	excellent inhibitory effect	◯			
COc1ncc(Cl)cc1S(=O)(=O)Nc1ccc(F)c(-n2c(=O)c3cnc(N)nc3n(C3CC3)c2=O)c1F [Example 65, N-(3-(7-amino-1-cyclopropyl-2,4-dioxo-1,4-dihydropyrimido[4,5-d]pyrimidin-3(2H)-yl)-2,4-difluorophenyl)-5-chloro-2-methoxypyridine-3-sulfonamide]	300 to 1000	excellent inhibitory effect	◯			
